The source of these data is patent publication US6075057A, “Inhibition of carbohydrates metabolism by quinone compounds” (priority 1997, dated 2000).

Molecules are shown by their SMILES.

Assay [1] concerns the target T1, α-glucosidase (EC 3.2.1.20, type IV) (Saccharomyces cerevisiae, UniProt P53341).
T1 construct: purchased Sigma; host or cells: brewer's yeast
The experiment in a line: Initial screening assay for enzyme inhibition, α-glucosidase. As to conditions: for remaining activity at 10 µM: α-glucosidase, 10 μM inhibitor, 2% MeOH, read-out: % Enzyme activity relative to control. The format is biochemical, brewer's yeast. Here is the method:
(§1) Optically pure enantiomers of avarol were synthetically prepared. A survey of potential inhibitory activity by avarol against twelve glycosidases was performed according to general procedures^15 (see experimental section). The enzymes tested and their biological sources are listed in Table 1 along with any pertinent references found for a given enzyme. In order to determine a working range for enzyme and substrate concentrations in which the rate of product formation was linear and steady-state kinetics were applicable, initial rate studies with varying substrate concentrations were performed in the absence of inhibitor. The Michaelis constants (Km 's) and Vmax values for these enzymes were determined from these plots using standard graphical analysis procedures as described in ref. 17 and are summarized in Table 2.
(§2) Initial screening assays with the enantiomeric avarols indicated significant activity by these compounds against only two of the twelve enzymes studies. […] This can occur when the two species compete for the same site or nearby sites on the enzyme. The equilibria that describe competitive inhibition are shown below. [drawing 3]
(§3) Enzymatic Assays. Piperazine-N,N'-bix-(2-ethanesulfonic acid)(PIPES) buffer, enzymes, and substrates were purchased from Sigma and used as received. Buffer solutions and enzymes (desiccated) were stored at 4° C. p-Nitrophenyl glycoside substrates were stored desiccated at -20° C. Enzyme inhibition assays and initial rate studies were carried out with the appropriate p-nitrophenyl glycoside substrates following the general procedure of Kajimoto et al., J. Am. Chem. Soc. 113:6187 (1991) with the exception that amyloglucosidase (EC 3.2,1.3, Asp. niger) was assayed following the method of Saul et al., Arch. Biochem. Biophys. 221:593 (1983). Assays were performed in a Perkin-Elmer Lambda Array 3840 Spectrophotometer using the built-in drive method (resolution=0.25, average=8) in a quartz cuvette (1 cm pathlength). Background absorption spectra were acquired using millipore filtered water as medium. Steady-state kinetics were maintained by adjusting the amount of enzyme used in each assay so that less than 10% of the substrate was converted to product for the duration of the reaction. Reactions were monitored at 400 nm (the absorbance of the p-nitrophenol product, ε=3204.5 M^-1 cm^-1) for a given amount of time and the initial rates were calculated and expressed as μmols p-nitrophenol formed per unit enzyme per second. Absportion readings for control reactions were corrected for the small baseline absorbance at time zero. Small discrepancies between time zero absorbance readings in a given inhibition assay and a time zero reading in a control assay were used to correct the overall absorbance change calculated in the inhibition assay. Inhibitors were dissolved in uv-grade absolute methanol.
Typical assay: A 1.5-mL quartz cuvette was charged with 940 μL of PIPES-NaOAc buffer solution (pH 6.56), 20 μL of inhibitor solution, and 20 μL of enzyme solution. The result was mixed well and then equilibrated at 37° C. for two minutes. 20 μL of the appropriate p-nitrophenyl glycoside solution was then added to initiate the reaction with rapid mixing. The reaction was monitored at 400 nm for 1 min and the absorbance change was used to calculate the initial hydrolysis rate. Lineweaver-Burk plots were constructed by repeating this procedure with varying substrate and inhibitor concentrations.

Assay [2] deals with T2, α-mannosidase (EC 3.2.1.24) (Canavalia ensiformis, UniProt C0HJB3).
T2 construct: 66 and 44 kDa subunits cleaved from one precursor
T2 sequence (C0HJB3 1-981): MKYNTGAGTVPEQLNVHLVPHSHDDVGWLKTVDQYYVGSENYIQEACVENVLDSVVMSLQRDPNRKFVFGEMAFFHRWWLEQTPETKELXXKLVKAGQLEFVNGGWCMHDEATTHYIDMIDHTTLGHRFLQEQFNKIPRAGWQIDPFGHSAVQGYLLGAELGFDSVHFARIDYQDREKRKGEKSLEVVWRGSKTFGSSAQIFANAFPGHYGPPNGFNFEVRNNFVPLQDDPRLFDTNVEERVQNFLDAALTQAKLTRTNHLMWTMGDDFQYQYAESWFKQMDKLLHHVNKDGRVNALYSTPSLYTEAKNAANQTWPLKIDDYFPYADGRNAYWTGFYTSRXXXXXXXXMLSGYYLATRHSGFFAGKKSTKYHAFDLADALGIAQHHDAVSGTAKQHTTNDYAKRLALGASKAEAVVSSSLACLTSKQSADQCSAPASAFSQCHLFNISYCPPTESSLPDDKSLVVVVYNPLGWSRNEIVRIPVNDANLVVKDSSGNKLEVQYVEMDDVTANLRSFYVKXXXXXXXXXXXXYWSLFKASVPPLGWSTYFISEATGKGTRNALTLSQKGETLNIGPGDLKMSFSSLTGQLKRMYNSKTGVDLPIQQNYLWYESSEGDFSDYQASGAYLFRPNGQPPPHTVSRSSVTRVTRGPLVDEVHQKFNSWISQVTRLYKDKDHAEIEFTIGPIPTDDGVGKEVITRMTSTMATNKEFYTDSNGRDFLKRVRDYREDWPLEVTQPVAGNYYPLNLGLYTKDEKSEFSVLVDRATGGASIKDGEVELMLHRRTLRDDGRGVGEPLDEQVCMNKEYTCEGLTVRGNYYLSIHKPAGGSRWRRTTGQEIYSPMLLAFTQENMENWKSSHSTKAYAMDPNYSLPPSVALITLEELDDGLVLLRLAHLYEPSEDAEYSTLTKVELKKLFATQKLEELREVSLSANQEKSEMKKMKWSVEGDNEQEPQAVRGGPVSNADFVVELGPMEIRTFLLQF
The assay is described as follows: Initial screening assay for enzyme inhibition, α-mannosidase. It counts as biochemical, jack beans. As to conditions: for remaining activity at 10 µM: α-mannosidase, 10 μM inhibitor, 2% MeOH, read-out: % Enzyme activity relative to control. As for the experimental part: as §1, §2
(§4) Enzymatic Assays. […] Reactions were monitored at 400 nm (the absorbance of the p-nitrophenol product, ε=3204.5 M^-1 cm^-1) for a given amount of time and the initial rates were calculated and expressed as μmols p-nitrophenol formed per unit enzyme per second. Absportion readings for control reactions were corrected for the small baseline absorbance at time zero. Small discrepancies between time zero absorbance readings in a given inhibition assay and a time zero reading in a control assay were used to correct the overall absorbance change calculated in the inhibition assay. […]
(§5) Typical assay: A 1.5-mL quartz cuvette was charged with 940 μL of PIPES-NaOAc buffer solution (pH 6.56), 20 μL of inhibitor solution, and 20 μL of enzyme solution. […] The reaction was monitored at 400 nm for 1 min and the absorbance change was used to calculate the initial hydrolysis rate. […]

In assay [3] the target is T3, β-galactosidase (EC 3.2.1.23, grade XI) (Aspergillus oryzae, UniProt Q2UCU3).
T3 construct: purchased Sigma; host or cells: Aspergillus oryzae
The experiment in a line: Initial screening assay for enzyme inhibition, β-galactosidase (Asp. oryzae). It counts as biochemical. As to conditions: 2% MeOH, read-out: % Enzyme activity relative to control. Here is the method:
as §1
as §3, with “Inhibitors were dissolved in uv-grade absolute methanol.” left out
as §5

Assay [4] concerns the target T4, α-galactosidase (EC 3.2.1.22) (Coffea arabica, UniProt Q42656).
T4 construct: purchased Sigma; host or cells: green coffee beans
The assay is described as follows: Initial screening assay for enzyme inhibition, α-galactosidase (green coffee beans). The format is biochemical. As to conditions: α-galactosidase (green coffee beans), 2% MeOH, read-out: % Enzyme activity relative to control. Here is the method: as §1
as §3, with “Inhibitors were dissolved in uv-grade absolute methanol.” left out
as §5

In assay [5] the test system is β-mannosidase (EC 3.2.1.25). The experiment in a line: Initial screening assay for enzyme inhibition, β-mannosidase. It counts as biochemical, snail. To be noted: 2% MeOH. As for the experimental part: as §1
as §3, with “Inhibitors were dissolved in uv-grade absolute methanol.” left out
as §5

In assay [6] the target is T5, α-glucosidase (brewer's yeast) (Saccharomyces cerevisiae, UniProt P53341).
T5 construct: purchased Sigma; host or cells: brewer's yeast
The assay is described as follows: Lineweaver-Burk analysis of inhibition of α-glucosidase. It counts as biochemical. As to conditions: replot of Lineweaver-Burk slopes, linear extrapolation; pH 6.56, 37° C.
Description: as §2
The equilibria describing this phenomenon are shown below. [drawing 4] The α factor represents the amount by which KS changes when I binds to the enzyme. The overall equilibrium constant for the formation of ESI remains the same regardless of which path was taken in its formation. Since the ES and ESI complexes are equally efficient in producing product, Vmax remains unchanged and Km is increased in the presence of inhibitor.
as §4

The term Ki denotes the equilibrium dissociation constant of an inhibitor or competing ligand from its target.

T1 sequence (P53341 whole entry): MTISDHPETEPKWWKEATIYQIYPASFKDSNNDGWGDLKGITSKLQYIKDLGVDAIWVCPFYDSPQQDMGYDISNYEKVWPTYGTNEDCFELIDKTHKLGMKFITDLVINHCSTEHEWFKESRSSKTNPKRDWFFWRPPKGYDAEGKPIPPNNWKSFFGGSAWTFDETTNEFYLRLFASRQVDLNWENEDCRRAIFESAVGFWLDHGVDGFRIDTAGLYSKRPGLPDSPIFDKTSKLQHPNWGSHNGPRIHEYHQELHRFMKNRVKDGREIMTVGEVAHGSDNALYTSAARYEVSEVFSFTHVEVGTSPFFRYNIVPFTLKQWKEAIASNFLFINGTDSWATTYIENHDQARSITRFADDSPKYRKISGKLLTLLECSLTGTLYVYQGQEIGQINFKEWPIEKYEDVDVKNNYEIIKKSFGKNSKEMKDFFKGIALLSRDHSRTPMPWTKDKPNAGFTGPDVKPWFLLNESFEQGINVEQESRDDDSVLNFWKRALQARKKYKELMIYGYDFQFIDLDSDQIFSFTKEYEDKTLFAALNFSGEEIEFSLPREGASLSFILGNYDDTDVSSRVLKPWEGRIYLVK
T4 sequence (Q42656 16-378): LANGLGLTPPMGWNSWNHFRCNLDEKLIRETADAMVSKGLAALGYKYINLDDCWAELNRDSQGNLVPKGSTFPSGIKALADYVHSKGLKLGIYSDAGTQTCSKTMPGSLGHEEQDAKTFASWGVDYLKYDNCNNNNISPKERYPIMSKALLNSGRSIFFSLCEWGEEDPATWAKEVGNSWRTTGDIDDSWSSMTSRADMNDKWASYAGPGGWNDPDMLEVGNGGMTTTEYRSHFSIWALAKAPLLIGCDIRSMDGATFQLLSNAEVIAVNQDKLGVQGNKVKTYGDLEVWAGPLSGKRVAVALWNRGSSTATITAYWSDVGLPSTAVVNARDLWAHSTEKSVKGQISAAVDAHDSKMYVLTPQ
T5 sequence (P53341 whole entry): as the sequence (P53341 whole entry) above
T3 sequence (Q2UCU3 19-1005): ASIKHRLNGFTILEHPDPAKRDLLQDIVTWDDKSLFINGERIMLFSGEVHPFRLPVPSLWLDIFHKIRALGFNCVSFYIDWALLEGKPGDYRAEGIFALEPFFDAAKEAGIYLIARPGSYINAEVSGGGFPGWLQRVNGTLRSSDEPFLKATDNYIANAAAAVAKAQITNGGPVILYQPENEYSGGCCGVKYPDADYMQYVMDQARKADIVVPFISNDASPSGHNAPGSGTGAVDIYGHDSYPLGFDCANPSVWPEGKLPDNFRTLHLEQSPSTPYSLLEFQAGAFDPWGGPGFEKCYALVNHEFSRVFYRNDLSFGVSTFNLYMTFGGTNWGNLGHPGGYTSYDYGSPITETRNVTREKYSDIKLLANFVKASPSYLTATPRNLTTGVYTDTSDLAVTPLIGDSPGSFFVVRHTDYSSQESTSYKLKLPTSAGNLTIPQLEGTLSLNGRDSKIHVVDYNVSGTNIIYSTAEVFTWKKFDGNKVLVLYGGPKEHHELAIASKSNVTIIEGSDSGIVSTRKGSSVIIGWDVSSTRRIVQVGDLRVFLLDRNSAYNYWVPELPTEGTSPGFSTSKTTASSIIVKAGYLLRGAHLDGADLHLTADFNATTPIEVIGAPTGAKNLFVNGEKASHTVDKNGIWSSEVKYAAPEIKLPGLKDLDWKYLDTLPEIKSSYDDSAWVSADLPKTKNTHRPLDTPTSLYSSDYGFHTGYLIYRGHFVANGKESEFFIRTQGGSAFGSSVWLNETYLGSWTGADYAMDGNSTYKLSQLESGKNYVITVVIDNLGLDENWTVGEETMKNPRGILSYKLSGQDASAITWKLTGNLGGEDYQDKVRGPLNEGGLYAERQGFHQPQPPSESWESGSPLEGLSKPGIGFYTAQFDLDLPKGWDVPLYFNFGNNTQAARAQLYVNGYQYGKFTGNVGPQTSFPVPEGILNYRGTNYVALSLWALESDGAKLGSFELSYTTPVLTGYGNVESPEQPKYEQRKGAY

In the case of `CC1=CCC[C@H]2[C@](C)(Cc3cc(O)ccc3O)[C@@H](C)CC[C@]12C` [(+)-avarol, (+)-Avarol], the remaining activity at 10 µM in assay [1] was 63%; in assay [2] it was 90%. In addition, the remaining activity at 40 µM was 100% in assay [3] (40 μM inhibitor) and 82% in assay [4] (40 μM inhibitor). Besides, the “% Enzyme activity relative to control” value in assay [5] (40 μM inhibitor) worked out at 106%. For the same compound, in assay [6], the Ki was 25 µM.
Turning to `CC1=CCC[C@@H]2[C@@](C)(Cc3cc(O)ccc3O)[C@H](C)CC[C@@]12C` [(-)-avarol], in assay [1] (versus (+)-avarol), the “activity versus naturally-occurring enantiomer, α-glucosidase (in words)” value was “significantly more active than the naturally-occurring enantiomer”. Further, the figures for the remaining activity at 10 µM in assay [1] and in assay [2] were 43% and 47%, respectively. Besides, the “activity versus naturally-occurring enantiomer, α-mannosidase (in words)” value in assay [2] (versus (+)-avarol) was “significantly more active than the naturally-occurring enantiomer”. In addition, the values for the remaining activity at 20 µM in assay [3] (20 μM inhibitor) and in assay [4] (20 μM inhibitor) were 99% and 83%, respectively. For the same compound, the “% Enzyme activity relative to control” value in assay [5] (20 μM inhibitor) stood at 101%. Moreover, in assay [6], the Ki was 9.5 µM.
